# According to US10213451B2, “Methods and compounds for modulating the secretion or expression of adhesion proteins or angiopoietins of cells” (PACIFIC ARROW LIMITED, priority 2004, dated 2019):
# Experiments:
# Type in all cases: cell-based, human
# [1] = tested on: myosin expression in ES2 cells; assay: Microarray gene expression, Table 7
# Procedure: (§1) Y/D is the ratio (in folds) of gene expression in cells treated with compound Y as compared with those of the no drug control (D),
# (§2) YM/D is the ratio of gene expression in cells treated with compound YM (ACH-Y, Y without sugar moiety) compared with those of the no drug control (D)
# (§3) Cell culture and drug-treatment.: ES2 cells were seeded in a T-25 flask with 4.5 million cells per flask for 24 hours. Cell culture was replaced with fresh medium with xanifolia-Y (Y) or DMSO no drug control (D) for 24 hours. Cells were then harvested for RNA isolation. Three experiments were done.
# (§4) RNA extraction, labeling, hybridization, and data analysis. RNA was extracted from tumor cells using the Qiagen RNeasy Kit. RNA quality and quantity was checked by the Agilent BioAnalyzer and the NanoDrop® ND-1000 spectrophotometer respectively before further manipulation. The first and second cDNA strands were synthesized from 20 ng of total RNA using the Affymetrix T7 oligo(dT) primer protocol and kit for the two-cycle amplification. To produce amplified biotin-labeled-cRNA, the cDNA was […] by in vitro transcription using the MegaScript kit from Ambion. 15.0 μg of the labeled cRNA was fragmented and re-checked for concentration using the NanoDrop® ND-1000 spectrophotometer. A hybridization cocktail containing Affymetrix spike-in controls and fragmented labeled cRNA was loaded onto the Human U133 Plus 2.0 GeneChip® oligonucleotide array. The Affymetrix array (Affymetrix, Inc. Santa Clara, Calif.) is comprised of over 1,300,000 unique oligonucleotide features that represent greater than 38,500 well-substantiated human genes. The array was hybridized for 16 hours at 45° C. with rotation at 60 rpm then washed and stained with a strepavidin, R-phycoerythrin conjugate stain on the Affymetrix Fluidicis Station 450. Signal amplification was done using biotinylated antistreptavidin. The arrays were scanned using the GeneChip® 3000 confocal laser scanner with autoloader. The images were analyzed and quality control metrics recorded using Affymetrix GCOS software version 1.4. Lastly, the expression value for each gene was calculated using dChip PM-only model based or Plier algorithm.
# (§5) Pairwise comparisons were made as follows: Treated vs. Control (Y vs. D), Modified Drug vs Control (YM/ACY-H vs. D) and Treated vs. Modified Drug (Y vs. YM/ACH-Y) Cel files analyzed using the Bioconductor package of R Statistical programming. Limma analysis generated a reasonable number of changing genes between the samples.
# (§6) The raw data in the .CEL files were normalized by the GCRMA method (robust multi-array analysis). It is implemented in Bioconductor (http://www.bioconductor.org/). The raw signal intensity data were normalized, background corrected and summarized based on certain statistical models, and an expression value, in log 2-scale, is obtained per chip per probe set. Then the null hypothesis was tested that there's no significant changes in gene expression between the treatment pairs. This was done by LIMMA and is also implemented in Bioconductor. It uses empirical Bayes method to estimate the variance in gene expression. One comparison was made, namely, High Grade vs. Low Grade. The raw p-values were adjusted by the Benjamnin-Hochberg method for false discovery rate (FDR) control. All data sets contained a significant number of genes with a p-value less than 0.05, which is that the probability that a gene is NOT differential expressed (false positive) is 1:20.
# [2] = tested on: cadherins expression in ES2 cells; assay: Microarray gene expression, Table 8
# Procedure: as §1, §2, §3, §4, §5, §6
# [3] = tested on: thrombospondin in ES2 cells; assay: Microarray gene expression, Table 15
# Procedure: as §1, §2, §3, §4, §5, §6
# [4] = tested on: RAB3B, member RAS oncogene family protein expression in ES2 cells; assay: Microarray gene expression, Table 17
# Procedure: as §1, §2, §3, §4, §5, §6
# [5] = tested on: angiopoietin expression in ES2 cells; assay: Microarray gene expression, Table 12
# Procedure: as §1, §2, §3, §4, §5, §6
# [6] = tested on: tenascin-C expression in ES2 cells; assay: Microarray gene expression, Table 9; conditions: probe 201645_at
# Procedure: as §1, §2, §3
# RNA extraction, labeling, hybridization, and data analysis. RNA was extracted from tumor cells using the Qiagen RNeasy Kit. RNA quality and quantity was checked by the Agilent BioAnalyzer and the NanoDrop® ND-1000 spectrophotometer respectively before further manipulation. […] The images were analyzed and quality control metrics recorded using Affymetrix GCOS software version 1.4. Lastly, the expression value for each gene was calculated using dChip PM-only model based or Plier algorithm.
# Pairwise comparisons were made as follows: Treated vs. Control (Y vs. D), Modified Drug vs Control (YM/ACY-H vs. D) and Treated vs. Modified Drug (Y vs. YM/ACH-Y) Cel files analyzed using the Bioconductor package of R Statistical programming. […]
# [7] = tested on: collagen expression in ES2 cells; assay: Microarray gene expression, Table 5
# Procedure: as §1, §2, §3, §4, §5, §6
compound,measurement,setting,value
C/C=C(/C)C(=O)O[C@H]1[C@H](OC(=O)/C(C)=C\C)[C@@]2(CO)C(CC1(C)C)C1=CCC3[C@@]4(C)CC[C@H](O)C(C)(C)C4CC[C@@]3(C)[C@]1(C)[C@@H](O)[C@H]2O (some centres unmarked) [ACH-Y],"MYLK myosin, light polypeptide kinase, gene expression ratio to no drug control (D)",[1]; probe 202555_s_at,−1.2 folds
same,"MYO6 myosin VI, gene expression ratio to no drug control (D)",[1]; probe 203215_s_at,−1.6 folds
same,"MYO5A myosin VA, gene expression ratio to no drug control (D)",[1]; probe 204527_at,−1.2 folds
same,"MYH9 myosin, heavy polypeptide 9, non-muscle, gene expression ratio to no drug control (D)",[1]; probe 211926_s_at,−1.2 folds
same,"MYO1D myosin ID, gene expression ratio to no drug control (D)",[1]; probe 212338_at,−2.1 folds
same,"MYH10 myosin, heavy polypeptide 10, non-muscle, gene expression ratio to no drug control (D)",[1]; probe 212372_at,−1.4 folds
same,"MYLK myosin, light polypeptide kinase, gene expression ratio to no drug control (D)",[1]; probe 224823_at,−1.4 folds
same,"MYO1C Myosin IC, gene expression ratio to no drug control (D)",[1]; probe 225080_at,−1.4 folds
same,"expression ratio to the control, myosin family",[1]; span over probes of Table 7,−1.2 to −2.1 folds
same,"CTNNB1 catenin (cadherin-associated protein), beta 1, 88 kDa, gene expression ratio to no drug control (D)",[2]; probe 201533_at,1.2 folds
same,"CTNNAL1 catenin (cadherin-associated protein), alpha-like 1, gene expression ratio to no drug control (D)",[2]; probe 202468_s_at,−1.6 folds
same,"CDH2 cadherin 2, type 1, N-cadherin (neuronal), gene expression ratio to no drug control (D)",[2]; probe 203440_at,1.0 folds
same,"CDH5 cadherin 5, type 2, VE-cadherin, gene expression ratio to no drug control (D)",[2]; probe 204677_at,−1.1 folds
same,"CDH13 cadherin 13, H-cadherin (heart), gene expression ratio to no drug control (D)",[2]; probe 204726_at,−1.7 folds
same,"CDH12 cadherin 12, type 2 (N-cadherin 2), gene expression ratio to no drug control (D)",[2]; probe 207149_at,−2.2 folds
same,"CTNND1 catenin (cadherin-associated, protein), delta 1, gene expression ratio to no drug control (D)",[2]; probe 208407_s_at,−1.7 folds
same,"CTNNA1 catenin (cadherin-associated protein), alpha 1, 102 kDa, gene expression ratio to no drug control (D)",[2]; probe 210844_x_at,−1.2 folds
same,"CDH13 cadherin 13, H-cadherin (heart), gene expression ratio to no drug control (D)",[2]; probe 244091_at,−1.7 folds
same,"THBS1 thrombospondin 1, gene expression ratio to no drug control (D)",[3]; probe 201108_s_at,−2.2 folds
same,"THBS1 thrombospondin 1, gene expression ratio to no drug control (D)",[3]; probe 201109_s_at,−6.2 folds
same,"THBS1 thrombospondin 1, gene expression ratio to no drug control (D)",[3]; probe 201110_s_at,−4.5 folds
same,"RAB3B, member RAS oncogene family, gene expression ratio to no drug control (D)",[4]; probe 205924_at,−1.8 folds
same,"RAB3B, member RAS oncogene family, gene expression ratio to no drug control (D)",[4]; probe 205925_s_at,−1.2 folds
same,"RAB3B, member RAS oncogene family, gene expression ratio to no drug control (D)",[4]; probe 227123_at,−1.2 folds
same,"RAB3B, member RAS oncogene family, gene expression ratio to no drug control (D)",[4]; probe 242629_at,−1.8 folds
same,"ANGPT2 angiopoietin 2, gene expression ratio to no drug control (D)",[5]; probe 205572_at,1.4 folds
same,"ANGPT1 angiopoietin 1, gene expression ratio to no drug control (D)",[5]; probe 205609_at,−1.2 folds
same,"ANGPT2 angiopoietin 2, gene expression ratio to no drug control (D)",[5]; probe 211148_s_at,1.4 folds
same,"ANGPTL4 angiopoietin-like 4, gene expression ratio to no drug control (D)",[5]; probe 221009_s_at,−1.4 folds
same,"ANGPTL1 Angiopoietin-like 1, gene expression ratio to no drug control (D)",[5]; probe 227533_at,−2.3 folds
same,"TNC Tenascin C (hexabrachion), gene expression ratio to no drug control (D)",[6],1.0 folds
same,"P4HB procollagen-proline, 2-oxoglutarate 4-dioxygenase, beta polypeptide, gene expression ratio to no drug control (D)",[7]; probe 200654_at,−1.3 folds
same,"P4HB procollagen-proline, 2-oxoglutarate 4-dioxygenase, beta polypeptide, gene expression ratio to no drug control (D)",[7]; probe 200656_s_at,−1.2 folds
same,"PLOD1 procollagen-lysine 1,2-oxoglutarate 5-dioxygenase 1, gene expression ratio to no drug control (D)",[7]; probe 200827_at,−1.2 folds
same,"COL6A3 collagen, type VI, alpha 3, gene expression ratio to no drug control (D)",[7]; probe 201438_at,−1.5 folds
same,"PLOD3 procollagen-lysine, 2-oxoglutarate 5-dioxygenase 3, gene expression ratio to no drug control (D)",[7]; probe 202185_at,−1.1 folds
same,"COL1A1 collagen, type I, alpha 1, gene expression ratio to no drug control (D)",[7]; probe 202311_s_at,−3.6 folds
same,"PCOLCE procollagen C-endopeptidase enhancer, gene expression ratio to no drug control (D)",[7]; probe 202465_at,−1.6 folds
same,"PLOD2 procollagen-lysine, 2-oxoglutarate 5-dioxygenase 2, gene expression ratio to no drug control (D)",[7]; probe 202619_s_at,−1.2 folds
same,"PLOD2 procollagen-lysine, 2-oxoglutarate 5-dioxygenase 2, gene expression ratio to no drug control (D)",[7]; probe 202620_s_at,−1.3 folds
same,"P4HA2 procollagen-proline, 2-oxoglutarate 4-dioxygenase, alpha polypeptide II, gene expression ratio to no drug control (D)",[7]; probe 202733_at,−1.9 folds
same,"COL5A1 collagen, type V, alpha 1, gene expression ratio to no drug control (D)",[7]; probe 203325_s_at,−2.8 folds
same,"P4HA1 procollagen-proline, 2-oxoglutarate 4-dioxygenase, alpha polypeptide I, gene expression ratio to no drug control (D)",[7]; probe 207543_s_at,−1.5 folds
same,"COL13A1 collagen, type XIII, alpha 1, gene expression ratio to no drug control (D)",[7]; probe 208535_x_at,−1.2 folds
same,"COL18A1 collagen, type XVIII, alpha 1, gene expression ratio to no drug control (D)",[7]; probe 209081_s_at,−1.5 folds
same,"COL13A1 collagen, type XIII, alpha 1, gene expression ratio to no drug control (D)",[7]; probe 211343_s_at,−1.7 folds
same,"COL13A1 collagen, type XIII, alpha 1, gene expression ratio to no drug control (D)",[7]; probe 211809_x_at,−1.5 folds
same,"COL4A2 collagen, type IV, alpha 2, gene expression ratio to no drug control (D)",[7]; probe 211966_at,−1.7 folds
same,"COL4A1 collagen, type IV, alpha 1, gene expression ratio to no drug control (D)",[7]; probe 211981_at,−2.2 folds
same,"COL6A1 collagen, type VI, alpha 1, gene expression ratio to no drug control (D)",[7]; probe 212091_s_at,−1.9 folds
same,"COL5A1 collagen, type V, alpha 1, gene expression ratio to no drug control (D)",[7]; probe 212489_at,−4.1 folds
same,"COL4A5 collagen, type IV, alpha 5 (Alport syndrome), gene expression ratio to no drug control (D)",[7]; probe 213110_s_at,−2.2 folds
same,"COL6A2 collagen, type VI, alpha 2, gene expression ratio to no drug control (D)",[7]; probe 213290_at,−1.5 folds
same,"COL4A6 collagen, type IV, alpha 6, gene expression ratio to no drug control (D)",[7]; probe 213992_at,−1.9 folds
same,"COL10A1 collagen, type X, alpha 1, gene expression ratio to no drug control (D)",[7]; probe 217428_s_at,−1.2 folds
same,"COL5A2 collagen, type V, alpha 2, gene expression ratio to no drug control (D)",[7]; probe 221729_at,−1.8 folds
same,"COL5A2 collagen, type V, alpha 2, gene expression ratio to no drug control (D)",[7]; probe 221730_at,−1.6 folds
same,"COL12A1 collagen, type XII, alpha 1, gene expression ratio to no drug control (D)",[7]; probe 231766_s_at,−2.4 folds
same,"CCBE1 collagen and calcium binding EGF domains 1, gene expression ratio to no drug control (D)",[7]; probe 242324_x_at,−1.8 folds
same,"COL5A1 collagen, type V, alpha 1, gene expression ratio to no drug control (D)",[7]; probe 1556138_a_at,−2.8 folds
same,"P4HA2 procollagen-proline, 2-oxoglutarate 4-dioxygenase, alpha polypeptide II, gene expression ratio to no drug control (D)",[7]; probe 1568611_at,−2.4 folds
same,"expression ratio to the control, collagen",[7]; span over probes of Table 5,−1.1 to −3.6 folds
